Assays:
BMDM [1] = assay: mtROS (MitoSOX) in BMDM; conditions: LPS-primed BMDM, compound pretreatment 16 h, ATP or nigericin
Description: (§1) Bone marrow cells were cultured in high glucose DMEM supplemented with 10% FBS, 20% L929-cell conditioned medium, and 100 U/mL penicillin-streptomycin for 7-10 days at 37° C. with 5% CO2 (Hornung et al., 2008).
Mitochondrial membrane potential was measured using TMRM according to manufacturer's instructions. Briefly, BMDM were primed or not with LPS for 4 h, and further stimulated with ATP or nigericin for 60 minutes. Cells were incubated with 200 nM TMRM for 30 minutes at 37° C. After washing twice, fluorescence intensity was determined per manufacturer's instructions using a FilterMax F5 multimode plate reader (Molecular Devices). Mitochondrial reactive oxygen species (mtROS) were measured using MitoSOX (Invitrogen) as described (Xian et al., 2021). BMDM treated as indicated were loaded with 4 μM MitoSOX for 20 minutes. After washing with PBS twice, cells were resuspended in PBS and counted. Equal numbers of cells from different treatment groups were then plated onto 96-well plates for fluorescence reading. To quantify [Ca^2+]m by 5 μM Rhod-2 or intracellular Ca^2+ intensity by 1 μM Fluo-4, BMDM treated as indicated were loaded with the respective dyes according to manufacturer's instructions for 30 minutes. After washing twice, fluorescence intensity was determined using a FilterMax F5 multimode plate reader (Molecular Devices). To analyze mPTP opening by calcein-quenching assay, BMDM treated as indicated were loaded with calcein at 2 μM and CoCl2 at 160 μM for 30 minutes at 37° C. according to manufacturer's instructions. After washing twice, fluorescence intensity was determined per with a FilterMax F5 multimode plate reader (Molecular Devices).

BMDM [2] = assay: total mtDNA (LPS-stimulated mtDNA synthesis, qPCR) in BMDM; format: cell-based, mouse; conditions: compound 10 μM 16 h, before or after LPS priming
Description: Nuclear DNA encoding telomerase reverse transcriptase (Tert), 18S ribosomal RNA and β2 microglobulin (B2m) was used for normalization.

STING = STING Ser365 phosphorylation (puncta by immunofluorescence, immunoblot) in BMDM; conditions: CsA 1 μM, VBIT-4 10 μM or FEN1-IN-4 10 μM 16 hrs
Description: as §1
Whole cell lysates were prepared in RIPA buffer (25 mM Tris-HCl pH 7.6, 150 mM NaCl, 1% NP-40, 1% sodium deoxycholate, 0.1% SDS) containing a protease inhibitor cocktail and a phosphatase inhibitor cocktail. Protein concentrations were determined using BCA Protein Assay Kit. Equal amounts of protein were separated by SDS-PAGE and transferred onto PVDF membranes, blocked in 5% BSA in 1×TBST for 1 h and incubated with primary antibodies overnight. Secondary antibodies were added for 1 h and detection was performed using Clarity Western ECL Substrate.
BMDM were fixed in 4% paraformaldehyde (PFA), permeabilized in 0.2% Triton X-100,and blocked in 1×PBS supplemented with 3% BSA. […] Nuclei were counterstained with DAPI.

NLRP3 inflammasome [3] = assay: NLRP3 inflammasome activation (Casp1 p20 and mature IL-1β, IB and ELISA) in BMDM; format: cell-based, mouse; conditions: LPS-primed BMDM, compound pretreatment 16 h, challenged with NLRP3 activators
Description: Paired antibodies (capture and detection) and standard recombinant mouse IL-1β and TNF were used to determine mouse cytokine concentrations according to manufacturer's instructions.

BMDM [4] = assay: stimulation of naive recipient BMDM by cell-free mtDNA (cytokine and ISG mRNA, qPCR); format: cell-based, mouse; conditions: recipient BMDM incubated 24 h with DNA from compound-pretreated donor BMDM; cytokine and ISG mRNAs
Description: RNA was extracted using AllPrep DNA/RNA Mini kit, and cDNA was synthesized using SuperScript™ VILO™ cDNA Synthesis Kit. mRNA expression was determined by QPCR in a CFX96 thermal cycler (Biorad) as described (Xian et al., 2021). Data are presented in arbitrary units and calculated by the 2^(−ΔΔCT) method. Primer sequences were obtained from the NIH qPrimerDepot (http://mouseprimerdepot.nci.nih.gov) and provided by Integrated DNA technologies.
Extracellular DNA of donor macrophages (1500,000 cells per group) was isolated using QIAamp Circulating Nucleic Acid Kit according to manufacturer's instructions and then eluted in 300 μL distilled H2O and quantified using spectrophotometric analysis at 260/280 nm with Nanodrop. DNA amounts purified among the different treatment groups vary. The DNA amount secreted from LPS-primed donor BMDM is low, approximately at 0.1 μg. The amount of DNA released by LPS-primed donor BMDM challenged with ATP is about 1.3 μg, while the amount of DNA released by LPS-primed donor BMDM challenged with nigericin is around 2 μg. The amount of DNA secreted by LPS-primed donor BMDM challenged with MSU or alum is about 0.7 μg. Applicant used 5% of the prepared DNA for qPCR measurement of extracellular mtDNA and the remaining 95% were added to the recipient BMDM for analyzing the paracrine immunostimulatory effects.

BMDM [5] = assay: mtDNA fragmentation (agarose gel of cytosolic and mitochondrial DNA) in BMDM; format: cell-based, mouse; conditions: FEN1-IN-4 10 μM 16 h, LPS-primed, ATP
Description: To analyze DNA fragmentation and extrusion in mitochondrial and cytosolic fractions, BMDM (15000,000 cells per group) were stimulated as indicated and fractionalized as above. […] Cytosolic, mitochondrial or nuclear DNAs were purified using AllPrep DNA/RNA Mini Kit according to manufacturer's instructions and analyzed on 1% agarose gels stained with ethidium bromide.

BMDM [6] = assay: 8-OH-dG content of mtDNA from mitochondria of BMDM; conditions: LPS-primed BMDM, FEN1-IN-4 pretreatment, ATP or nigericin
Description: as §1
(§2) BMDM were stimulated as indicated. […] Briefly, BMDM were washed with PBS and harvested, 10% of which were saved for DNA extraction of whole cells. The remaining BMDM resuspended with pre-chilled mitochondrial extraction buffer 1 (220 mM mannitol, 70 mM sucrose, 20 mM HEPES-KOH, pH 7.5, 1 mM EDTA and 2 mg/mL bovine serum albumin) supplemented with a protease inhibitor cocktail and a phosphatase inhibitor cocktail were passed through a 25-G syringe (BD Biosciences) 20 times on ice. The homogenized cells were centrifuged at 1000×g for 15 minutes at 4° C. The supernatant was further centrifuged at 10,000×g for 10 minutes at 4° C. to pellet the mitochondria from supernatant cytosolic fraction. qPCR was performed after DNA purification with AllPrep DNA/RNA Mini Kit according to manufacturer's instructions, from both whole cell extracts and cytosolic fractions using mtDNA primers (D-loop, Cox1, non-NUMT), or after DNA purification from whole cell extracts using nuclear DNA primers (Tert, 18S, B2m). The Ct values obtained for mtDNA abundance in whole cell extracts served as normalization controls for the mtDNA values obtained from the cytosolic fractions. For the measurement of Ox-mtDNA, purified mtDNA was extracted from the cytosolic or mitochondrial fractions as indicated. The 8-OH-dG content was then quantified using 8-hydroxy 2-deoxyguanosine ELISA Kit, per manufacturer's instructions.

NLRP3 inflammasome [7] = assay: alum-induced peritonitis in mice; format: in vivo, mouse
Description: 8-12-week-old male C57BL/6 mice and WT or mt-Ogg1Tg mice were allocated randomly and i.p. injected with alum (1 mg dissolved in 0.2 mL sterile PBS) or PBS. Peritoneal lavage was collected 4 h post-injection to measure cytokine amounts by ELISA. […] Neutrophils (CD11b^+Ly6G^+F4/80^−) and monocytes (CD11b^+Ly6C^+Ly6G^−) present in peritoneal lavage fluid were quantified by flow cytometry. For blocking Fc-mediated interactions, mouse cells were pre-incubated with 0.5-1 μg of purified anti-mouse CD16/CD32 per 100 μL. Isolated cells were stained with labelled antibodies in PBS with 2% FCS and 2 mM EDTA or cell staining buffer (Biolegend). Dead cells were excluded based on staining with propidium iodide (PI). Absolute numbers of immune cell subtypes in the peritoneum were calculated by multiplying total peritoneal cell numbers by percentages of immune cell subtypes amongst total cells. Cells were analyzed on a Beckman Coulter Cyan ADP flow cytometer. Paired antibodies (capture and detection) and standard recombinant mouse IL-1β and TNF were used to determine mouse cytokine concentrations according to manufacturer's instructions.

BMDM [8] = assay: extracellular (cell-free) mtDNA released by donor BMDM; format: cell-based, mouse; conditions: LPS-primed donor BMDM pretreated with compound, challenged with ATP or nigericin
Description: Extracellular DNA of donor macrophages (1500,000 cells per group) was isolated using QIAamp Circulating Nucleic Acid Kit according to manufacturer's instructions and then eluted in 300 μL distilled H2O and quantified using spectrophotometric analysis at 260/280 nm with Nanodrop. […] Applicant used 5% of the prepared DNA for qPCR measurement of extracellular mtDNA and the remaining 95% were added to the recipient BMDM for analyzing the paracrine immunostimulatory effects.

BMDM [9] = assay: cytosolic mtDNA (qPCR after cellular fractionation) in BMDM; format: cell-based, mouse; conditions: LPS-primed BMDM, compound 10 μM 16 h, ATP 4 mM 1 h
Description: as §1, §2

[10] = ccf-mtDNA and Fpg-sensitive Ox-mtDNA in peritoneal exudates of alum-challenged mice; format: in vivo, mouse; conditions: FEN1-IN-4 40 mg/kg, exudates 4 and 16 hrs post-challenge
BMDM [11] = assay: cytosolic Ox-mtDNA (8-OH-dG ELISA of cytosolic mtDNA) in BMDM; format: cell-based, mouse; conditions: LPS-primed BMDM, compound 10 μM 16 h, ATP 4 mM 1 h
Description: as §1, §2

[12] = FEN1-IN-4 40 mg/kg 16 h prior to i.p. alum 1 mg, exudate 4 h later
[13] = FEN1-IN-4 40 mg/kg 16 h prior to i.p. alum, 16 h

O=c1c2ccccc2n(CC2CC2)c(=O)n1O [FEN1-IN-4]
mtROS production (BMDM [1]): no effect | LPS-stimulated mtDNA synthesis (total mtDNA) (BMDM [2]): did not affect | formation of Ser^365 phosphorylated STING puncta (STING; LPS-primed BMDM, ATP or nigericin): diminished | ATP-induced STING Ser^365 phosphorylation (immunoblot) in Nlrp3−/− BMDM (STING; LPS-primed Nlrp3−/− BMDM, ATP): completely blocked | NLRP3 inflammasome activation (Casp1 activation and mature IL-1β secretion) (NLRP3 inflammasome [3]): dose-dependent inhibition | immunostimulatory activity of DNA secreted by treated donor BMDM (BMDM [4]): inhibited | mtDNA fragmentation (BMDM [5]): abrogated | Ox-mtDNA generation (8-OH-dG in mitochondrial mtDNA) (BMDM [6]): no effect | alum-induced NLRP3 inflammasome-dependent IL-1β production in vivo (peritoneal IL-1β) (NLRP3 inflammasome [7]; [12]): inhibited | peritoneal TNF secretion in vivo (NLRP3 inflammasome [7]; [12]): without an effect | monocyte infiltration (peritoneal) (NLRP3 inflammasome [7]; [13]): reduced | neutrophil infiltration (peritoneal) (NLRP3 inflammasome [7]; [13]): reduced | cell-free mtDNA release (BMDM [8]): inhibited | cytosolic mtDNA release (BMDM [9]): abrogated | ccf-mtDNA secretion into peritoneal exudates [10]: inhibited | Ox-mtDNA secretion into peritoneal exudates ([10]; Fpg-sensitive qPCR): inhibited | cytosolic Ox-mtDNA (release) (BMDM [11]): abrogated

Reference: patent US20250064808A1, “METHODS FOR THE TREATMENT OF NLRP3 RELATED DISORDERS” (priority 2022, published 2025)
